Results taken from US10314816B2, “Antimicrobial compounds, compositions and methods of use thereof” (Wisconsin Alumni Research Foundation, priority 2012, dated 2019).

Legend:
GFP-MinD = test: Measurement of compound effects on MinD localization; format: cell-based, Bacillus subtilis; details: B. subtilis cells, treated 20 minutes, compared to DMSO
Method: Measurement of compound effects on MinD: B. subtilis DS4294 (amyE::Pxyl-GFP-minD cat) cells were grown to exponential phase (λ=600 nm, 0.4-0.7) in LB with incubation at 30° C. and 200 rpm shaking. Cells were induced for GFP-MinD production by adding xylose to the media to a final concentration of 0.1% (w/v) followed by incubating for 75 min. After induction, cells were treated with compounds for 20 minutes before imaging. Other details for imaging conditions and data analysis were identical to those described for MipZ-YFP, except for the definition of poles, and a set of criteria used for defining ‘wildtype’ protein localization. ‘Wildtype’ was defined as 1) GFP-MinD was bipolar, meaning there were two peaks, and both peaks were at the poles (1-20% and 80-100% of the normalized cell length); 2) GFP-MinD was at the mid-cell in addition to the bipolar localization, meaning there were three peaks with two of them at the poles and one at mid-cell; and 3) GFP-MinD was at an quaternary position (20-40% and 60-80% of the normalized cell length) in addition to the bipolar and mid-cell localization (the total number of peaks was 4 if there is one quaternary peak, and the total was 5 if there are two quaternary peaks). Because B. subtilis cells can initiate division prior to finishing an earlier division and the completion of septation, these normal cells have peaks at quaternary positions. […]

C. crescentus CB15N = test: Minimum biofilm eradication concentration (MBEC); format: cell-based, Caulobacter crescentus
Method: Determination of the minimum biofilm inhibitory concentration of growth (bMIC) and biofilm eradication concentration (MBEC). Overnight cultures of C. crescentus and S. aureus were grown and diluted 100-fold into appropriate nutrient media. Aliquots of the diluted suspension were transferred into wells of 96-well plates (150 μL/well). 2-fold serial dilutions were performed for compound-containing wells. For every experiment, three replicates for each compound concentration tested were included. After transferring aliquots of the suspension, the plates were closed with specialized lids that have protruding pins (Nunc STP System), and the plates were sealed using Parafilm®. The plates were incubated in a static incubator at 30° C. (C. crescentus) or 37° C. (S. aureus) for 24 hours. After the cells had formed biofilms on the surface of the pins, the pins were rinsed by dipping them in M2 (C. crescentus) or PBS (S. aureus) solutions. To rinse the pins, clean, sterile 96-well plates were used (aliquots of 200 μL/well); each rinse lasted 10 sec. After washing away planktonic cells loosely bound to biofilms, the pins were inserted into a 96-well plate that was pre-aliquoted with nutrient media containing antibiotics (2-fold dilutions, a final volume of 150 μL/well). The plates were sealed with Parafilm®, and incubated for 17 hours, and the bMIC was measured at the end of the incubation by visual inspection. After the bMIC run, the rinse steps were repeated to remove planktonic cells, and the pins were inserted into a 96-well plate that was pre-aliquoted with drug-free nutrient media (aliquots of 150 μL/well). The plates were sealed with Parafilm®, incubated for 24 hours, and the MBEC was measured at the end of the incubation by visual inspection.
After performing bMIC experiments, biofilms growing on the pins of the lid were transferred to nutrient media devoid of antibiotics to measure the minimum concentration of antibiotic that prevented planktonic growth from biofilms in antibiotic-free nutrient media (MBEC). MBEC indicates whether the exposure to antimicrobial agent used during the bMIC experiment sterilized biofilm-associated cells. […] CCCP was the only effective antibiotic against S. aureus biofilms. Since CCCP was not as effective as DCAP at killing stationary cells, it was hypothesized that this variability in efficacy of membrane-active drugs is in part caused by changes in membrane composition (i.e., membrane proteins and lipid content) at different developmental stages of bacterial cells. […]

[1] = system: rabbit red blood cells (RBC); test: Rabbit red blood cell (RBC) hemolysis assay; format: cell-based
Method: Rabbit red blood cell (RBC) hemolysis assay. Rabbit RBCs from Lampire Biological Laboratories were used. Prior to preparing the RBCs, compound-containing PBS solutions were serially diluted into a 96-well plate (a final volume of 100 μL/well). The RBC lysis solution (Epicentre Biotechnology) was included as a positive control for hemolysis. For each assay, 1 mL of the RBC suspension was removed from the stock bottle and centrifuged for 2 minutes at 2000 rpm. The pelleted cells were resuspended in sterile PBS solution and centrifuged again. The cells were resuspended in PBS and diluted 5-fold into the same solution. 100 μL aliquots of RBCs were added into wells of a 96-well plate that contained an equal volume of a solution of compound in PBS. The plates were incubated for varying amounts of time depending on the microbial assay conditions to be emulated. For MIC-like conditions, plates were incubated for at least 17 hours at 30° C. or 37° C. For MSC-like conditions, the incubation time was either 2 hours or 6 hours at 30° C. or 37° C. During the incubation, un-lysed RBCs settled at the bottom of the wells. At the end of the incubation, 90 μL of the supernatant was transferred into the wells of a fresh 96-well plate, and the absorbance of the heme at 2=405 nm was measured.
To test the toxicity of DCAP against mammalian membranes, the hemolysis of rabbit red blood cells (RBC) was measured. These experiments were performed using conditions that closely mimicked the MIC and MSC assays. RBCs were treated with CCCP and DCAP at their MICs for the time periods used (17 hours) to determine the MIC of C. crescentus and S. aureus. After incubation, the absorbance of heme released from lysed RBCs was measured.
The MSC assay conditions were also reproduced to measure toxicity against RBCs. First, the minimum time required to obtain the MSC for DCAP treatment of C. crescentus (2 hours) and S. aureus (6 hours; data not shown) was determined.

[2] = compounds at their MICs for C. crescentus and S. aureus, 17 hours

SMILES | GFP-MinD localization (GFP-MinD) | MBEC (C. crescentus CB15N) [µM] | Hemolysis of rabbit RBCs [1, 2] | Hemolysis of rabbit RBCs ([1]; high concentration, MSC conditions for S. aureus (FIG. 8C)) | Hemolysis of rabbit RBCs ([1]; MSC assay conditions, 2 hours (C. crescentus) and 6 hours (S. aureus)) | Hemolysis of rabbit RBCs ([1]; higher concentrations of DCAP (i.e., 50 μM), 17 hours)
N#CC(C#N)=NNc1cccc(Cl)c1 [CCCP, carbonyl cyanide m-chlorophenyl hydrazone] | more diffuse fluorescence throughout the cell but had little effect on the location of the signal | 5 | did not significantly disrupt RBC membranes | toxic to RBCs at a high concentration |  | 
OCC(CO)(CO)NCC(O)Cn1c2ccc(Cl)cc2c2cc(Cl)ccc21 (stereo not drawn) [DCAP, 2-((3-(3,6-dichloro-9H-carbazol-9-yl)-2-hydroxypropyl)amino)-2-(hydroxymethyl)propane-1,3-diol] | GFP-MinD mislocalized | 40 | did not significantly disrupt RBC membranes |  | no significant toxicity | moderately toxic to RBCs
